From ChEMBL document CHEMBL1201862, “PubChem BioAssay data set” (2004) come the findings set out here.

Common to all, as to assay: NCI anticancer screen, dose series, 48 h
Assay [1] relates to UACC-62.
Assay [2] deals with RXF 393.
Assay [3] has as its system NCI-H460.
In assay [4] the test system is MCF7.
Assay [5] relates to SW-620.
Assay [6] has as its system HCT-15.
Assay [7] relates to SK-MEL-2.
The test system of assay [8] is OVCAR-3.
For assay [9], the system named is MOLT-4.
Assay [10] has as its system RPMI-8226.
Assay [11] relates to A498.
The subject of assay [12] is COLO 205.
The subject of assay [13] is HL-60.
Assay [14] has as its system Hs-578T.
Assay [15] concerns MDA-MB-231.
Assay [16] concerns U-251.
The test system of assay [17] is HOP-92.
In assay [18] the test system is SK-MEL-5.
The test system of assay [19] is NCI-H522.

Structures are written as SMILES.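 Each compound was tested at five concentrations against cells in 96-well plates for 48 hours. GI50 is the concentration that inhibits growth by half.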 Activity calls are given as the source filed them. Rule as the data show it: active = GI50 up to about 1.1 µM and inactive = higher.

In the case of `NC(CSC1c2ccccc2-c2ccccc21)C(=O)O` (stereo unspecified), the GI50 in assay [1] is > 100 µM (inactive); in assay [2], > 100 µM (inactive); in [3], > 100 µM (inactive); in [4], > 100 µM (inactive); in assay [5], > 100 µM (inactive); in assay [6] it was > 100 µM. The GI50 in assay [7], in [8], in [9], in assay [10], in assay [11] and in assay [12] was > 100 µM (inactive) throughout. In addition, the GI50 is > 100 µM (inactive) in assay [13]; 23.9 µM (inactive) in [14]; > 100 µM (inactive) in assay [15]; > 100 µM (inactive) in assay [16]; > 100 µM (inactive) in assay [17]; > 100 µM (inactive) in assay [18].

As for `Cc1cc(C)c2c(c1)C/C(=C\c1ccccc1C(=O)O)C2=O`, the GI50 was 51.9 µM (inactive) in assay [2]; 11.7 µM (inactive) in [3]; 78.2 µM (inactive) in assay [4]; 66.2 µM (inactive) in [19]; > 100 µM (inactive) in assay [5]; 47.4 µM in assay [6]. Moreover, the GI50 was 23.7 µM (inactive) in assay [8]; 76.4 µM (inactive) in assay [9]; > 100 µM (inactive) in [10]; 51.5 µM (inactive) in assay [11]; > 100 µM (inactive) in assay [13]; > 100 µM (inactive) in assay [14]. For the same compound, the GI50 is > 100 µM (inactive) in assay [15], 7.46 µM (inactive) in assay [16], 81.8 µM (inactive) in [17] and 82.4 µM (inactive) in [18].

`O=C1CC2C=CC(O)C(C1)C2` (stereo unspecified): the GI50 in assay [1] was > 100 µM (inactive); in assay [2], 3.49 µM (inactive); in assay [3], > 100 µM (inactive); in [4], > 100 µM (inactive); in [19], > 100 µM (inactive); in assay [5] it was > 100 µM (inactive). Further, the GI50 in assay [6] is > 100 µM; in assay [7] it was > 100 µM (inactive); in assay [8] it was > 100 µM (inactive); in [9], > 100 µM (inactive); in assay [10], > 100 µM (inactive); in assay [11], > 100 µM (inactive). Moreover, the GI50 in assay [12] is > 100 µM (inactive); in [13], > 100 µM (inactive); in [14] it was 21 µM (inactive); in assay [15] it was > 100 µM (inactive); in assay [16], > 100 µM (inactive).

In the case of `Nc1ccn([C@H]2CO[C@@H](CO)O2)c(=O)n1`, the GI50 in assay [1] is 2.37 µM (inactive); in [2], 1.83 µM (inactive); in assay [3] it was 1.58 µM (inactive); in [4], 1.48 µM (inactive); in [19], 7.03 µM (inactive); in assay [5], > 56.6 µM (inactive). In addition, the GI50 in [6] is 5.4 µM; in [7], > 100 µM (inactive); in assay [8], > 71.6 µM (inactive); in assay [9], 0.28 µM (active); in [10], > 94 µM (inactive); in assay [12], 83 µM (inactive). In addition, the GI50 in [13] is 0.252 µM (active); in [14], > 100 µM (inactive); in assay [15] it was > 55.7 µM (inactive); in [16], 10.5 µM (inactive); in assay [17], 1.82 µM (inactive); in [18] it was 18.9 µM (inactive).

For `CCOC(=O)Oc1cc2c(c(OC)c1OC)-c1ccc(SC)c(=O)cc1C(NC(=O)C(F)(F)F)CC2` (stereo unspecified), the GI50 in [1] was 0.00108 µM (active); in assay [2], < 0.001 µM (active); in assay [3], 0.00199 µM (active); in assay [4] it was < 0.001 µM (active); in assay [19], < 0.001 µM (active); in assay [5], < 0.001 µM (active). Further, the GI50 in assay [6] was 0.00221 µM; in assay [8], < 0.001 µM (active); in assay [9], 0.00117 µM (active); in [10], < 0.001 µM (active); in [11], 0.00133 µM (active); in assay [12], 0.0577 µM (active). The GI50 in [13] was < 0.001 µM (active); in assay [14] it was < 0.001 µM (active); in assay [15], 0.00172 µM (active); in assay [16], 0.00145 µM (active); in assay [17] it was 0.00604 µM (active); in assay [18], < 0.001 µM (active).

Take `CN1CCN(C(=S)N(C(=O)c2cccs2)C2CCCCC2)CC1`: the GI50 in [1], in assay [2], in assay [3], in [4], in [19] and in [5] was > 100 µM (inactive) in each case. In addition, the GI50 is > 100 µM in assay [6]; > 100 µM (inactive) in [7]; > 100 µM (inactive) in assay [8]; > 10 µM (inactive) in [9]; > 100 µM (inactive) in assay [10]; > 100 µM (inactive) in assay [12]. The GI50 is 24.8 µM (inactive) in assay [13]; > 100 µM (inactive) in assay [14]; > 100 µM (inactive) in [15]; > 100 µM (inactive) in assay [16]; > 100 µM (inactive) in assay [17]; > 100 µM (inactive) in assay [18].

`O=C1C=CC=C/C1=C1\N=C(c2ccccc2OCC(=O)c2ccc(Br)cc2)SS1`: the GI50 in assay [1] was 23.1 µM (inactive); in [2], 30 µM (inactive); in assay [3] it was > 100 µM (inactive); in assay [4], > 100 µM (inactive); in assay [5], > 100 µM (inactive); in assay [6], > 100 µM. The GI50 was 42.5 µM (inactive) in assay [7]; > 100 µM (inactive) in assay [8]; > 10 µM (inactive) in assay [9]; > 100 µM (inactive) in assay [10]; > 100 µM (inactive) in assay [11]; > 100 µM (inactive) in [12]. In addition, the GI50 in assay [13] was > 100 µM (inactive); in assay [14], 15.2 µM (inactive); in [15], > 10 µM (inactive); in [16], 40.3 µM (inactive); in assay [17], 63.8 µM (inactive); in assay [18], > 100 µM (inactive).

With `NC1=CN2c3ccccc3N(CC(=O)O)C2C=C1` (stereo unspecified), the GI50 in assay [1] is > 100 µM (inactive); in assay [2] it was > 100 µM (inactive); in assay [3], > 100 µM (inactive); in assay [4] it was > 100 µM (inactive); in assay [5], > 100 µM (inactive); in [6], > 100 µM. Also, the GI50 in assay [7], in assay [8], in assay [9], in assay [10], in [11] and in assay [12] was > 100 µM (inactive) each time. Also, the GI50 in [13], in [14], in assay [15], in assay [16], in assay [17] and in assay [18] was > 100 µM (inactive) each time.

For `COP(=O)(Cc1ccc(/C=C/C#N)o1)OC`, the GI50 is > 100 µM (inactive) in [1]; > 100 µM (inactive) in assay [2]; > 100 µM (inactive) in [3]; > 100 µM (inactive) in [4]; > 100 µM (inactive) in assay [19]; > 10 µM (inactive) in [5]. Further, the GI50 was > 100 µM in assay [6]; > 100 µM (inactive) in assay [8]; > 100 µM (inactive) in assay [9]; > 100 µM (inactive) in assay [10]; > 100 µM (inactive) in assay [11]; > 100 µM (inactive) in [12]. Besides, the GI50 in assay [13] was > 100 µM (inactive); in [14], 62.2 µM (inactive); in [15], > 100 µM (inactive); in assay [16], > 100 µM (inactive); in [17], > 100 µM (inactive).

With `Cc1c(/C=N/NC(=S)Nc2ccc(Cl)cc2)c(=O)n(-c2ccccc2)n1C`, the GI50 in assay [1] is > 48.5 µM (inactive); in [2], 14.8 µM (inactive); in [3], 25.4 µM (inactive); in [4] it was 19.8 µM (inactive); in [19], 7.08 µM (inactive); in assay [5], > 78.5 µM (inactive). The GI50 in assay [6] was 17.9 µM; in [7], 21.6 µM (inactive); in assay [8], > 42 µM (inactive); in assay [9], > 60.8 µM (inactive); in assay [10], 39.1 µM (inactive); in assay [11], 22.5 µM (inactive). The GI50 in [12] is > 71.1 µM (inactive); in [13] it was > 100 µM (inactive); in [14], 18.3 µM (inactive); in assay [15], 0.637 µM (active); in assay [16], 15.5 µM (inactive); in assay [18], 20.1 µM (inactive).

Turning to `C[C@H](NC(=O)c1ccc(CNC(=O)/C=C/c2cccc(Oc3ccccc3)c2)cc1)c1ccccc1`, the GI50 in assay [1] was > 100 µM (inactive); in assay [2] it was 26.7 µM (inactive); in assay [3], > 100 µM (inactive); in assay [4] it was > 100 µM (inactive); in assay [19], > 100 µM (inactive); in assay [5], > 100 µM (inactive). In addition, the GI50 in assay [6] was > 100 µM; in [7] it was > 100 µM (inactive); in [8] it was > 100 µM (inactive); in [9], 93.3 µM (inactive); in assay [10], > 100 µM (inactive); in assay [11] it was 73.6 µM (inactive). For the same compound, the GI50 in assay [12] is > 100 µM (inactive); in [14], 49.9 µM (inactive); in assay [15], > 100 µM (inactive); in assay [16], 49.2 µM (inactive); in assay [17] it was > 100 µM (inactive); in [18] it was 58.5 µM (inactive).

For `CC1=C/C(=N\OCC(=O)O)CC(c2ccc(C(C)C)cc2)C1` (stereo unspecified), the GI50 is 33.7 µM (inactive) in [1]; > 100 µM (inactive) in assay [2]; 42.2 µM (inactive) in [3]; 52.5 µM (inactive) in [4]; 23.2 µM (inactive) in assay [19]; 34.3 µM (inactive) in assay [5]. In addition, the GI50 in assay [6] was 23.2 µM; in assay [7], 99.1 µM (inactive); in assay [9], 16.3 µM (inactive); in assay [10] it was 23.2 µM (inactive); in assay [12], 76.7 µM (inactive); in assay [13] it was 26.5 µM (inactive). For the same compound, the GI50 in [14] is > 100 µM (inactive); in assay [15] it was 54.8 µM (inactive); in assay [16], 63.8 µM (inactive); in assay [17], 29.5 µM (inactive); in assay [18] it was 17.5 µM (inactive).
